Measurements taken from PubChem BioAssay (NCI).
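Five compound concentrations were applied to cells in 96-well plates for 48 hours; endpoints were derived by simple linear interpolation of the resulting dose-response curve. TGI: total growth inhibition.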

Assays:
Assay in all cases: NCI tumour cell line growth inhibition, 48 h
UACC-62 melanoma = tested on: UACC-62 melanoma
DMS 114 small cell lung = tested on: DMS 114 small cell lung
SK-MEL-2 melanoma = tested on: SK-MEL-2 melanoma
SF-295 CNS = tested on: SF-295 CNS
HCC-2998 colon = tested on: HCC-2998 colon
NCI-H226 lung = tested on: NCI-H226 lung
HL-60(TB) leukemia = tested on: HL-60(TB) leukemia
M14 melanoma = tested on: M14 melanoma
IGROV1 ovarian = tested on: IGROV1 ovarian
DMS 273 small cell lung = tested on: DMS 273 small cell lung
SW-620 colon = tested on: SW-620 colon
OVCAR-5 ovarian = tested on: OVCAR-5 ovarian
ACHN renal = tested on: ACHN renal
MALME-3M melanoma = tested on: MALME-3M melanoma
COLO 205 colon = tested on: COLO 205 colon
HCT-15 colon = tested on: HCT-15 colon
HOP-92 NSCLC = tested on: HOP-92 NSCLC
HT29 colon = tested on: HT29 colon
CAKI-1 renal = tested on: CAKI-1 renal
XF 498 CNS = tested on: XF 498 CNS
RPMI-8226 leukemia = tested on: RPMI-8226 leukemia
SF-268 CNS = tested on: SF-268 CNS
NCI-H522 lung = tested on: NCI-H522 lung
U251 CNS = tested on: U251 CNS
LXFL 529 NSCLC = tested on: LXFL 529 NSCLC
KM20L2 colon = tested on: KM20L2 colon
KM12 colon = tested on: KM12 colon
SK-MEL-5 melanoma = tested on: SK-MEL-5 melanoma
OVCAR-8 ovarian = tested on: OVCAR-8 ovarian
DLD-1 colon = tested on: DLD-1 colon
SNB-19 CNS = tested on: SNB-19 CNS
MOLT-4 leukemia = tested on: MOLT-4 leukemia
A549 NSCLC = tested on: A549 NSCLC
NCI-H460 lung = tested on: NCI-H460 lung
OVCAR-3 ovarian = tested on: OVCAR-3 ovarian
TK-10 renal = tested on: TK-10 renal
OVCAR-4 ovarian = tested on: OVCAR-4 ovarian
SNB-75 CNS = tested on: SNB-75 CNS
786-0 renal = tested on: 786-0 renal
K-562 leukemia = tested on: K-562 leukemia
SR leukemia = tested on: SR leukemia
UO-31 renal = tested on: UO-31 renal
SF-539 CNS = tested on: SF-539 CNS
UACC-257 melanoma = tested on: UACC-257 melanoma
SK-MEL-28 melanoma = tested on: SK-MEL-28 melanoma
CCRF-CEM leukemia = tested on: CCRF-CEM leukemia
HOP-62 NSCLC = tested on: HOP-62 NSCLC
NCI-H23 lung = tested on: NCI-H23 lung
M19-MEL melanoma = tested on: M19-MEL melanoma
HCT-116 colon = tested on: HCT-116 colon
SN12C renal = tested on: SN12C renal
LOX IMVI melanoma = tested on: LOX IMVI melanoma
EKVX NSCLC = tested on: EKVX NSCLC
SNB-78 CNS = tested on: SNB-78 CNS
SK-OV-3 ovarian = tested on: SK-OV-3 ovarian
A498 renal = tested on: A498 renal

`CSc1nc(Cl)c(Br)c(Sc2nc(N)nc3nc[nH]c23)n1` was tested, and the TGI (UACC-62 melanoma) was 14.2 µM, the TGI (DMS 114 small cell lung) was 18.9 µM and the TGI (SK-MEL-2 melanoma) was 16.9 µM. The TGI (SF-295 CNS) was 17.7 µM, the TGI (HCC-2998 colon) was 15.2 µM and the TGI (NCI-H226 lung) was 22.3 µM. It also gave a TGI (HL-60(TB) leukemia) of 13.3 µM, a TGI (M14 melanoma) of 15.3 µM and a TGI (IGROV1 ovarian) of 28.2 µM. It also gave a TGI (DMS 273 small cell lung) of 15.6 µM, a TGI (SW-620 colon) of 25.3 µM and a TGI (OVCAR-5 ovarian) of 24.1 µM. It also gave a TGI (ACHN renal) of 30.3 µM, a TGI (MALME-3M melanoma) of 26.4 µM and a TGI (COLO 205 colon) of 33.8 µM. It also gave a TGI (HCT-15 colon) of 21.2 µM, a TGI (HOP-92 NSCLC) of 19.2 µM and a TGI (HT29 colon) of 36.8 µM. It also gave a TGI (CAKI-1 renal) of 10.2 µM, a TGI (XF 498 CNS) of 30.1 µM and a TGI (RPMI-8226 leukemia) of 16.4 µM. For the same compound, the TGI (SF-268 CNS) was 14.9 µM, the TGI (NCI-H522 lung) was 3.45 µM and the TGI (U251 CNS) was 16.4 µM. It also gave a TGI (LXFL 529 NSCLC) of 18.7 µM, a TGI (KM20L2 colon) of 18.8 µM and a TGI (KM12 colon) of 19 µM. The TGI (SK-MEL-5 melanoma) was 26.4 µM, the TGI (OVCAR-8 ovarian) was 41.9 µM and the TGI (DLD-1 colon) was 24.4 µM. It also gave a TGI (SNB-19 CNS) of 30.2 µM, a TGI (MOLT-4 leukemia) of 18.9 µM and a TGI (A549 NSCLC) of 48.7 µM. For the same compound, the TGI (NCI-H460 lung) was 20.1 µM, the TGI (OVCAR-3 ovarian) was 29 µM and the TGI (TK-10 renal) was 20.9 µM. It also gave a TGI (OVCAR-4 ovarian) of 23.3 µM, a TGI (SNB-75 CNS) of 9.74 µM and a TGI (786-0 renal) of 15.2 µM. The TGI (K-562 leukemia) was 13.1 µM, the TGI (SR leukemia) was 14.1 µM and the TGI (UO-31 renal) was 17 µM. It also gave a TGI (SF-539 CNS) of 11.2 µM, a TGI (UACC-257 melanoma) of 30 µM and a TGI (SK-MEL-28 melanoma) of 24 µM. The TGI (CCRF-CEM leukemia) was 9.38 µM, the TGI (HOP-62 NSCLC) was 8.69 µM and the TGI (NCI-H23 lung) was 24 µM. For the same compound, the TGI (M19-MEL melanoma) was 23.4 µM and the TGI (HCT-116 colon) was 12.4 µM.

With `COc1cc(/C=C(\C#N)C(=O)c2ccccc2)ccc1O` the TGI (UACC-62 melanoma) was over 100 µM, the TGI (SN12C renal) was over 100 µM and the TGI (SK-MEL-2 melanoma) was over 100 µM. It also gave a TGI (SF-295 CNS) of over 100 µM, a TGI (HCC-2998 colon) of over 100 µM and a TGI (NCI-H226 lung) of over 100 µM. For the same compound, the TGI (HL-60(TB) leukemia) was over 100 µM, the TGI (M14 melanoma) was over 100 µM and the TGI (LOX IMVI melanoma) was over 100 µM. For the same compound, the TGI (IGROV1 ovarian) was over 100 µM, the TGI (SW-620 colon) was over 100 µM and the TGI (OVCAR-5 ovarian) was over 100 µM. For the same compound, the TGI (ACHN renal) was over 100 µM, the TGI (MALME-3M melanoma) was over 100 µM and the TGI (COLO 205 colon) was over 100 µM. For the same compound, the TGI (HCT-15 colon) was over 100 µM, the TGI (HT29 colon) was over 100 µM and the TGI (CAKI-1 renal) was over 100 µM. For the same compound, the TGI (XF 498 CNS) was over 100 µM, the TGI (RPMI-8226 leukemia) was over 100 µM and the TGI (EKVX NSCLC) was over 100 µM. It also gave a TGI (SF-268 CNS) of over 100 µM, a TGI (NCI-H522 lung) of over 100 µM and a TGI (U251 CNS) of over 100 µM. The TGI (LXFL 529 NSCLC) was over 100 µM, the TGI (SNB-78 CNS) was over 100 µM and the TGI (KM20L2 colon) was over 100 µM. It also gave a TGI (KM12 colon) of over 100 µM, a TGI (SK-MEL-5 melanoma) of over 100 µM and a TGI (OVCAR-8 ovarian) of over 100 µM. For the same compound, the TGI (SNB-19 CNS) was over 100 µM, the TGI (MOLT-4 leukemia) was over 100 µM and the TGI (A549 NSCLC) was over 100 µM. For the same compound, the TGI (NCI-H460 lung) was over 100 µM, the TGI (OVCAR-3 ovarian) was over 100 µM and the TGI (TK-10 renal) was over 100 µM. The TGI (SK-OV-3 ovarian) was over 100 µM, the TGI (OVCAR-4 ovarian) was over 100 µM and the TGI (786-0 renal) was over 100 µM. The TGI (K-562 leukemia) was over 100 µM, the TGI (SR leukemia) was over 100 µM and the TGI (UO-31 renal) was over 100 µM. The TGI (SF-539 CNS) was over 100 µM, the TGI (UACC-257 melanoma) was over 100 µM and the TGI (SK-MEL-28 melanoma) was over 100 µM. For the same compound, the TGI (CCRF-CEM leukemia) was over 100 µM, the TGI (A498 renal) was over 100 µM and the TGI (HOP-62 NSCLC) was over 100 µM. The TGI (NCI-H23 lung) was over 100 µM, the TGI (M19-MEL melanoma) was over 100 µM and the TGI (HCT-116 colon) was over 100 µM.
